Assay results from BindingDB's records for doi:10.1016/j.bmcl.2007.05.021 (Yale University, 2007).

What follows are compounds tested against Transcription factor Jun (Homo sapiens, UniProt P05412) (assay: Inhibition of AP1-mediated gene transcription in HepG2 cells by luciferase reporter gene assay).
Chain of Transcription factor Jun (P05412 whole entry): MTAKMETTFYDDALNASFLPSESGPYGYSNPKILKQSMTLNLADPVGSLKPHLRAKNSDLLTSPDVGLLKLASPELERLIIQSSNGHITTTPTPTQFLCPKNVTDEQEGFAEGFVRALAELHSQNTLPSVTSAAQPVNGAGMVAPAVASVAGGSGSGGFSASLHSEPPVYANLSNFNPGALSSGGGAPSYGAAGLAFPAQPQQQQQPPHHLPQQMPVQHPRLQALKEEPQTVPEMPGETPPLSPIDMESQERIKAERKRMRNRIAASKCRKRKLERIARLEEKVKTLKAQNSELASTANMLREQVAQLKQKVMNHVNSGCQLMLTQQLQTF

| SMILES | IC50 |
| --- | --- |
| COc1ccc2c3c(c4cc(OC)c(O)cc4c2c1)C[N+]1([O-])CCC[C@H]1[C@H]3O (stereo partly drawn) [tylophoridicine C] | > 3 µM |
| COc1ccc2c3c(c4cc(OC)c(OC)cc4c2c1)CN1CCC[C@H]1[C@@H]3O [tylophorinine] | 0.11 µM |
| COc1ccc2c3c(c4cc(OC)c(O)cc4c2c1)CN1CCC[C@@H]1C3 [[(R)-(+)-deoxytylophorinidine] | 0.068 µM |
| COc1cc2c3c(c4cc(OC)c(OC)cc4c2cc1OC)[C@@H](O)[C@@H]1CCCN1C3 [(12aS,13R)-2,3,6,7-tetramethoxy-9,10,11,12,12a,13-hexahydro-9a-aza-cyclopenta[b]triphenylen-13-ol] | > 0.3 µM |
| COc1cc2c(cc1OC)-c1cc(OC)c(OC)cc1C1CN3CCC[C@H]3C=C21 (stereo partly drawn) [(S)-2,3,6,7-tetramethoxy-8b,9,10,11,12,12a-hexahydro-9a-aza-cyclopenta[b]triphenylene] | > 0.3 µM |
| COc1ccc2c3c(c4cc(OC)c(OC)cc4c2c1)C[N+]1([O-])CCC[C@H]1[C@@H]3O (stereo partly drawn) [tylophoridicine F] | > 3 µM |
| COc1ccc2c3c(c4cc(OC)c(O)cc4c2c1)CN1CCC[C@H]1[C@H]3O [tylophorinidine] | 0.065 µM |
| COc1cc2c3c(c4cc(OC)c(OC)cc4c2cc1O)CN1CCC[C@H]1[C@H]3O [(12aS,13S)-2,6,7-trimethoxy-9,10,11,12,12a,13-hexahydro-9a-aza-cyclopenta[b]triphenylene-3,13-diol] | > 1 µM |
